Results: US20080194585A1, “Fungicidal Pyrazine Derivatives” (priority 2005, published 2008)
Marks after values point to notes of the source that are not given here.

Experiments:
Plasmopara viticola = test: Test D: grape downy mildew, spray after inoculation of grape seedlings; assay type: in vivo; details: 100 = 100% disease control; for pest or weed control at 200 ppm: Plasmopara viticola, 168 h, read-out: Test D disease control rating
Text: Upon removal, disease ratings were made. […] A dash (-) indicates no test results.

Phytophthora infestans = test: whole plant or invertebrate; assay type: in vivo; details: for Test F disease control rating: 100 = 100% disease control; for pest or weed control at 200 ppm: Phytophthora infestans, in Solanum lycopersicum, topical, 144 h, read-out: Test F disease control rating
Septoria tritici = test: Test J: wheat leaf blotch, preventive spray on wheat seedlings; assay type: in vivo; details: 40 ppm (marked *), 100 = 100% disease control, 0 = no control; for pest or weed control at 40 ppm: Zymoseptoria tritici, 528 h, read-out: Test J disease control rating
Text: A dash (-) indicates no test results.

fusarium graminearium = test: Test I: wheat head scab, preventive spray on wheat seedlings; details: 100 = 100% disease control; for pest or weed control at 200 ppm: Fusarium, in Triticum aestivum, topical, 192 h, read-out: Test I disease control rating, 200 ppm
Protocol: (the causal agent of wheat head scab) and incubated in a saturated atmosphere at 20° C. for 72 h, and then moved to a growth chamber at 22° C. for 5 days, after which disease ratings were made.

Botrytis cinerea = test: Test E: tomato botrytis, preventive spray on tomato seedlings; details: for Test E disease control rating: 40 ppm (marked *), 100 = 100% disease control, 0 = no control
Septoria nodorum = test: Test H: wheat glum blotch, preventive spray on wheat seedlings; details: 100 = 100% disease control; for Test H disease control rating: 40 ppm (marked *)
Protocol: (the causal agent of wheat glum blotch) and incubated in a saturated atmosphere at 20° C. for 48 h, and then moved to a growth chamber at 22° C. for 5 days, after which disease ratings were made.

Pythium aphanidermatum = test: Test A: bluegrass pythium blight, preventive spray on bluegrass seedlings; details: for pest or weed control at 200 ppm: Pythium aphanidermatum, 120 h, read-out: Test A disease control rating
Rhizoctonia oryzae = test: Test G: turf brown patch, preventive spray on creeping bent grass seedlings; details: 100 = 100% disease control
Protocol: (the causal agent of turf brown patch) and incubated in a saturated atmosphere at 27° C. for 24 h, and then moved to a growth chamber at 27° C. for 5 days, after which disease ratings were made.

[1] = test system: Colletotrichum orbiculare; test: Test B: cucumber Colletotrichum anthracnose, preventive spray on cucumber seedlings; details: 100 = 100% disease control; for Test B disease control rating: 40 ppm (marked *)
[2] = test system: Erysiphe graminis f. sp. tritici; test: Test L: wheat powdery mildew, preventive spray on wheat seedlings; details: 100 = 100% disease control; for Test L disease control rating: 40 ppm (marked *)
[3] = 40 ppm (marked *), 0 = no control
[4] = 200 ppm, 0 = no control relative to controls
[5] = 0 = no control relative to controls
[6] = Botrytis cinerea, in Solanum lycopersicum, topical, 72 h, read-out: Test E disease control rating

Row | Compound | Test D disease control rating (Plasmopara viticola; [3]) | Test F disease control rating (Phytophthora infestans; [3]) | Test J disease control rating (Septoria tritici) | Test I disease control rating (fusarium graminearium; [3]) | Test E disease control rating (Botrytis cinerea) | Test H disease control rating (Septoria nodorum; 0 = no control) | Test G disease control rating (Rhizoctonia oryzae; [3]) | Test B disease control rating ([1]; 0 = no control) | Test L disease control rating ([2]; 0 = no control) | also measured
1 | Nn1c(-c2c(F)cccc2F)c(Cl)nc(-n2cccn2)c1=O [Compound 400, 1-Amino-5-chloro-6-(2,6-difluorophenyl)-3-(1H-pyrazol-1-)-2(1H)-pyrazinone] | 0* % | 0* % | 0* % | 0* % | 0* % | 0* % | 0* % | 0* % |  | Test A disease control rating (Pythium aphanidermatum; 40 ppm (marked *), 100 = 100% disease control, 0 = no control): 0* %
2 | NC(=O)c1nc(Cl)c(-c2c(F)cc(F)cc2F)n(-c2cccc(F)c2)c1=O [Compound 414, 6-Chloro-4-(3-fluorophenyl)-3,4-dihydro-3-oxo-5-(2,4,6-trifluorophenyl)pyrazinecarboxamide] |  |  |  |  |  |  |  |  |  | pest or weed control at 200 ppm (Plasmopara viticola; [4]): 40%; pest or weed control at 200 ppm (Phytophthora infestans): 85%; pest or weed control at 40 ppm (Septoria tritici): 97%; pest or weed control at 200 ppm (fusarium graminearium; [5]): 35%; pest or weed control at 40 ppm (Botrytis cinerea; [6]): 99%; pest or weed control at 40 ppm (Septoria nodorum; Parastagonospora nodorum, in Triticum aestivum, topical, 168 h, read-out: Test H disease control rating, 40 ppm (marked *), 0 = no control): 0%; pest or weed control at 40 ppm ([2]; Blumeria graminis, in Triticum aestivum, 168 h, read-out: Test L disease control rating, 40 ppm (marked *), 0 = no control): 98%; pest or weed control at 200 ppm (Pythium aphanidermatum): 95%; pest or weed control at 40 ppm (Rhizoctonia oryzae; Waitea circinata, in Agrostis stolonifera, topical, 144 h, read-out: Test G disease control rating, 40 ppm (marked *), 0 = no control): 0%; pest or weed control at 40 ppm ([1]; Colletotrichum orbiculare, in Cucumis sativus, 144 h, read-out: Test B disease control rating, 40 ppm (marked *), 0 = no control): 0%
3 | CCC(C)Cn1c(-c2ccc(F)cc2F)c(C)nc(C#N)c1=NC(C)=O (centres unmarked) [Compound 430, N-[3-Cyano-6-(2,4-difluorophenyl)-5-methyl-1-(2-methylbutyl)-2(1H)-pyrazinylidene]acetamide] |  |  |  |  |  |  |  |  |  | pest or weed control at 200 ppm (Plasmopara viticola; [4]): 0%; pest or weed control at 200 ppm (Phytophthora infestans): 0%; pest or weed control at 40 ppm (Septoria tritici): 86%; pest or weed control at 200 ppm (fusarium graminearium; [5]): 0%; pest or weed control at 200 ppm (Botrytis cinerea; [6]): 96%; pest or weed control at 200 ppm (Septoria nodorum; Parastagonospora nodorum, in Triticum aestivum, topical, 168 h, read-out: Test H disease control rating, 200 ppm, 0 = no control relative to controls): 0%; pest or weed control at 200 ppm ([2]; Blumeria graminis, in Triticum aestivum, 168 h, read-out: Test L disease control rating, 200 ppm, 0 = no control relative to controls): 93%; pest or weed control at 200 ppm (Pythium aphanidermatum): 0%; pest or weed control at 200 ppm (Rhizoctonia oryzae; Waitea circinata, in Agrostis stolonifera, topical, 144 h, read-out: Test G disease control rating, 200 ppm, 0 = no control relative to controls): 0%; pest or weed control at 200 ppm ([1]; Colletotrichum orbiculare, in Cucumis sativus, 144 h, read-out: Test B disease control rating, 200 ppm, 0 = no control relative to controls): 0%
4 | Cc1ccn(-c2nc(Cl)c(-c3c(F)cc(F)cc3F)n(-c3ccc(Cl)c(Cl)c3)c2=O)n1 [compound 403] | 0* % | 0* % | 98* % | 0* % | 99* % | 100* % |  | 99* % | 99* % | Test G disease control rating (Rhizoctonia oryzae; [4]): 0%
5 | O=c1c(-n2cccn2)nc(Cl)c(-c2c(F)cc(F)cc2F)n1-c1cc(Cl)cc(Cl)c1 [compound 404] | 0* % | 0* % | 97* % | 0* % | 98* % | 100* % | 9* % | 0* % | 0* % | 
6 | Cc1ccn(-c2nc(Cl)c(-c3c(F)cc(F)cc3F)n(-c3cc(Cl)cc(Cl)c3)c2=O)n1 [compound 405] | 0* % | 0* % | 99* % | 0* % | 99* % | 98* % | 17* % | 36* % | 0* % | 
7 | O=c1c(-n2cccn2)nc(Cl)c(-c2c(F)cc(F)cc2F)n1-c1ccc(F)c(Cl)c1 [compound 406] | 0* % | 0* % | 100* % | 0* % | 99* % | 99* % | 50* % | 84* % | 0* % | 
8 | Cc1ccn(-c2nc(Cl)c(-c3c(F)cc(F)cc3F)n(-c3ccc(F)c(Cl)c3)c2=O)n1 [compound 407] | 0* % | 0* % | 99* % | 0* % | 99* % | 99* % | 9* % | 32* % | 0* % | 
9 | O=c1c(-n2cccn2)nc(Cl)c(-c2c(F)cc(F)cc2F)n1-c1ccc(F)cc1 [compound 408] | 0* % | 0* % | 99* % | 0* % | 99* % | 100* % | 91* % | 98* % | 99* % | 
10 | Cc1ccn(-c2nc(Cl)c(-c3c(F)cc(F)cc3F)n(-c3ccc(F)cc3)c2=O)n1 [compound 409] | 0* % | 0* % | 99* % | 0* % | 99* % | 99* % | 24* % | 98* % | 60* % | 
11 | O=c1c(-n2cccn2)nc(Cl)c(-c2c(F)cc(F)cc2F)n1-c1cc(F)c(F)c(F)c1 [compound 410] | 0* % | 0* % | 98* % | 0* % | 99* % | 99* % | 17* % | 97* % | 0* % | 
12 | Cc1ccn(-c2nc(Cl)c(-c3c(F)cc(F)cc3F)n(-c3cc(F)c(F)c(F)c3)c2=O)n1 [compound 411] | 0* % | 0* % | 98* % | 0* % | 99* % | 99* % | 16* % | 98* % | 87* % | 
13 | CCn1c(-c2ccc(F)cc2Cl)c(Cl)nc(C(N)=O)c1=O [compound 412] |  |  | 0* % |  | 29* % | 0* % | 0* % | 0* % | 0* % | Test D disease control rating (Plasmopara viticola; [4]): 16%; Test F disease control rating (Phytophthora infestans; [4]): 9%; Test I disease control rating (fusarium graminearium; [4]): 0%
